Where two headings read alike, the source gives them in different places.

For data set [1], the system named is Heliothis armigera larvae. Kind of data set: Heliothis armigera test (soy sprouts, immersion). In kind it is in vivo. The following applies: Helicoverpa armigera, 168 h, 100 ppm active substance, after 7 days. The method, then: (§1) Solvent: 7 Parts by weight of dimethylformamide
(§2) Emulsifier: 2 Parts by weight of alkyl-aryl polyglycol ether
(§3) For the production of a practical active agent preparation, one mixes 1 part by weight of active substance with the specified amount of solvent and emulsifier and dilutes the concentrate to the desired concentration with water containing an emulsifier.
Soy sprouts (Glycine max) are treated through immersion in the active substance preparation of the desired concentration and filled with Heliothis armigera larvae, while the leaves are still moist.
(§4) After the desired time the mortality in % is determined. In doing so, 100% means that all larvae were killed; 0% means that no larvae were killed.

The test system of data set [2] is Meloidogyne incognita egg/larvae suspension. The experiment in a line: Meloidogyne test (gall formation on lettuce). Format: in vivo. To be noted: 20 ppm active substance; nematicidal effect by gall formation, 100% = no galls. The text has this: Meloidogyne Test Solvent: 7 Parts by weight of dimethylformamide Emulsifier: 2 Parts by weight of alkyl-aryl polyglycol ether For the production of a practical active agent preparation, one mixes 1 part by weight of active substance with the specified amount of solvent and emulsifier and dilutes the concentrate to the desired concentration with water. Vessels are filled with sand, active substance solution, Meloidogyne incognita egg/larvae suspension and lettuce seeds. The lettuce seeds germinate and the seedlings grow. The galls grow on the roots. After the desired time, the nematicidal effect is determined by means of gall formation in %. In doing so, 100% means that no galls were found; 0% means that the number of galls on the treated plants corresponds to the untreated control.

Data set [3] concerns cabbage moth larvae (Plutella xylostella). The experiment in a line: Plutella test (cabbage leaves, immersion). In kind it is in vivo. On the procedure: as §1, §2, §3
Cabbage leaves (Brassica oleracea) are treated through immersion in the active substance preparation of the desired concentration and filled with cabbage moth larvae (Plutella xylostella), while the leaves are still moist.
as §4

The test system of data set [4] is fall armyworm larvae (Spodoptera exigua). The experiment in a line: Spodoptera exigua test (cabbage leaves, immersion). Format: in vivo. The method, then:
as §1, §2, §3
Cabbage leaves (Brassica oleracea) are treated through immersion in the active substance preparation of the desired concentration and filled with fall armyworm larvae (Spodoptera exigua), while the leaves are still moist.
as §4

The test system of data set [5] is fall armyworm larvae (Spodoptera frugiperda). The experiment in a line: Spodoptera frugiperda test (spray treatment). In kind it is in vivo. The following applies: 100 ppm active substance, maize leaf slices. The text has this:
Spodoptera frugiperda Test (Spray Treatment) Solvent: 78 Parts by weight of acetone • • 1.5 Parts by weight of dimethylformamide Emulsifier: 0.5 Parts by weight of alkyl-aryl polyglycol ether For the production of a practical active agent preparation, one mixes 1 part by weight of active substance with the specified amount of solvent and emulsifier and dilutes the concentrate to the desired concentration with water containing an emulsifier. Maize leaf slices (Zea mays) are sprayed with an active substance preparation of the desired concentration and filled with fall armyworm larvae (Spodoptera frugiperda) after drying. After the desired time the effect in % is determined. In doing so, 100% means that all larvae were killed; 0% means that no larvae were killed.

In data set [6] the test system is common spider mite (Tetranychus urticae). Kind of data set: Tetranychus test (OP-resistant/spray treatment). In kind it is in vivo. The following applies: 100 ppm active substance, spray treatment, bean leaf slices, OP-resistant.
Source text: Tetranychus Test (OP-Resistant/Spray Treatment)
Solvent: 78 Parts by weight of acetone • • 1.5 Parts by weight of dimethylformamide
Emulsifier: 0.5 Parts by weight of alkyl-aryl polyglycol ether
as §3
Bean leaf slices (Phaseolus vulgaris) that are affected by all stages of the common spider mite (Tetranychus urticae) are sprayed with a active substance preparation of the desired concentration.
After the desired time the effect in % is determined. In doing so, 100% means that all spider mites were killed; 0% means that no spider mites were killed.

A short description of data set [7]: log P (physical data). In kind it is physicochemical.
[8] abbreviates: 100 ppm active substance, after 7 days, cabbage leaves.

As to `COc1c(Cl)cc(OCC=C(Cl)Cl)cc1C1=NOC(CCCOc2ccc(C(F)(F)F)cn2)C1` (racemic) [Example I-1, (R/S)-3-(2-methoxy-3-chloro-5-(1,1-dichloro-1-propen-3-oxy)-phenyl)-5-((5-trifluormethylpyridin-2-yl)-3-(propyl)ether-1-yl)-Δ^2-isoxazoline], the mortality (as a rule, the percentage killed) at 100 ppm is 100% in data set [1]; 100% in data set [3] (Plutella xylostella, 168 h); 100% in data set [4] (Spodoptera exigua, 168 h). In data set [2], the “Effect in % after 14 days” value is 80%. The “Effect in % after 7 days” value in data set [5] and in data set [6] was 100% in each case.
For `COc1c(Cl)cc(OCC=C(Cl)Cl)cc1C1=NOC(COc2ccc(C(F)(F)F)cn2)C1` (racemic) [Example I-5, (R/S)-3-(2-methoxy-3-chloro-5-(dichlorpropenoxy)phenyl)-5-((5-trifluormethylpyridin-2-yl)-2-(methyl)ether-1-yl)Δ^2-isoxazoline], the “Effect in % after 7 days” value in data set [5] is 10%.
On to `COc1c(Cl)cc(OCC=C(Cl)Cl)cc1C1=NOC(CCOc2ccc(OCC(F)(F)F)nc2)C1` (racemic) [Example I-6, (R/S)-3-(2-methoxy-3-chloro-5-(dichloropropenoxy)phenyl)-5-((6-trifluorethoxypyridin-3-yl)-2-(ethyl)ether-1-yl)Δ^2-isoxazoline], for which the mortality in data set [3] (setting [8]) and in data set [4] (setting [8]) was 100% throughout. Moreover, the “Effect in % after 7 days” value in data set [5] was determined as 100%.
Take `COc1c(Cl)cc(OCC=C(Cl)Cl)cc1C1=NOC(CCCOc2ccc(OCC(F)(F)F)nc2)C1` (racemic) [Example I-7, (R/S)-3-(2-methoxy-3-chloro-5-(dichloropropenoxy)phenyl)-5-((6-trifluorethoxypyridin-3-yl)-3-(propyl)ether-1-yl)Δ^2-isoxazoline]: the “Effect in % after 7 days” value worked out at 100% in data set [5] and 80% in data set [6].
The matching figures for `COc1c(Cl)cc(OCC=C(Cl)Cl)cc1C1=NOC(CCCCOc2ccc(C(F)(F)F)cn2)C1` (racemic) [Example I-10, (R/S)-3-(2-methoxy-3-chloro-5-(dichloropropenoxy)phenyl)-5-((5-trifluormethylpyridin-2-yl)-4-(butyl)ether-1-yl)Δ^2-isoxazoline]: 100% and 80%.
With `COc1c(Cl)cc(OCC=C(Cl)Cl)cc1C1=NOC(CCOc2ccc(OCC(F)(F)F)nc2)C1` (racemic) [Example I-11, (R/S)-3-(2-methoxy-3-chloro-5-(dichloropropenoxy)phenyl)-5-((6-trifluorethoxypyridin-3-yl)-2-(ethyl)ether-1-yl)Δ^2-isoxazoline], in data set [5], the “Effect in % after 7 days” value came to 100%.
Take `COc1c(Cl)cc(OCC=C(Cl)Cl)cc1-c1cc(CCOc2ccc(C(F)(F)F)cn2)on1` [Example I-9, 3-(2-methoxy-3-chloro-5-(dichloropropenoxy)phenyl)-5-((5-trifluormethylpyridin-2-yl)-2-(ethyl)ether-1-yl)isoxazole]: the results for the “Effect in % after 7 days” value in data set [5] and in data set [6] were 100% and 90%, respectively.
Consider `COc1ccc(OCC=C(Cl)Cl)cc1-c1noc(CCCOc2ccc(C(F)(F)F)cn2)n1` [Example I-127, 2-(3-{3-[5-(3,3-dichloro-allyloxy)-2-methoxy-phenyl]-[1,2,4]oxadiazol-5-yl}-propoxy)-5-trifluoromethyl-pyridine], for which the logP in data set [7] (neutral, read-out: log P (neutral)) was 4.93.
For the compound `COc1c(Cl)cc(OCC=C(Cl)Cl)cc1-c1nc(CCCOc2ccc(C(F)(F)F)cn2)no1` [Example I-128, 2-(3-{5-[3-chloro-5-(3,3-dichloro-allyloxy)-2-methoxy-phenyl]-[1,2,4]oxadiazol-3-yl}-propoxy)-5-trifluoromethyl-pyridine], in data set [7] (read-out: log P), the logP worked out at 5.99.
`COc1c(Cl)cc(OCC=C(Cl)Cl)cc1C1=NC(CO)CO1` (centres unmarked) [{2-[3-chloro-5-(3,3-dichloro-allyloxy)-2-methoxy-phenyl]-4,5-dihydro-oxazol-4-yl}-methanol]: the logP in data set [7] (pH=2.3, read-out: log P(pH=2.3)) came to 2.05.

These data come from patent publication US20070112035A1, “Substituted oxyarenes” (BAYER CROPSCIENCE AKTIENGESELLSCHAFT, priority 2003, published 2007).
